The record followed here is patent US11219636B2, “Compositions and methods for treating cancer” (priority 2015, dated 2022).

Series [1] relates to p53 target genes. Description: Transcription of p53 target genes, Western blot and semi-quantitative PCR. Conditions: 50 μM, 24 hours, HCT116 p53 WT cells. The series is classed as cell-based, human. As for the experimental part:
FIGS. 14A-C are Western blot analyses of p53 (FIG. 14A), p21 (FIG. 14B) and Tubulin (FIG. 14C) of HCT116 cells after treatment with 5FU. HCT116 cells were treated with 50 μM 5FU for 24 hours. Then, total cell lysate was prepared and subjected to Western blot analysis for p53 (FIG. 14A) and p21 (FIG. 14B) analysis. Tubulin (FIG. 14C) was used as a loading control and in the analyses of both proteins for normalization.
FIGS. 15A-B depict mRNA levels of various transcripts following treatment of HCT116 cells with 5FU. HCT116 cells were treated with 50 μM 5FU for 24 hours. Then, RNA was prepared and used as a template for cDNA and semi-quantitative PCR was performed for the following transcripts: p21, Bax, Noxa, Puma, MDM2, 14-3-3o, CD95, Btg2, GADD45, and Survivin. The graph represents the quantification of mRNA levels performed using the primers listed in Table 2 in the EXAMPLES section which follows.
Further validation of endogenous p53 activation led the present inventors to test other canonical target genes. 5-FU (50 μM) was added to HCT116 p53 WT cells for 24 hours. Total cell lysate was prepared and subjected into Western blot analysis and at the same time RNA was prepared and used as a template for cDNA and semi-quantitative PCR was performed. […] In particular a tight correlation between p21 and p53 protein levels (FIGS. 14A-C).
(In general: Immunoblotting shows a protein as a band on a membrane.)

Series [2] has as its system HCT116 cells.
For series [3], the system named is p53. Description: p53 transcription activity by GFP reporter in HCT116 cells transfected with RGC-mazE-IRES-GFP plasmid. The series is classed as cell-based, human.
Procedure: In order to test the ability of p53 to bind to its responsive element and stimulate transcription, HCT116 cells were transfected with RGC-mazE-IRES-GFP plasmid. Since p53 is degraded in un-activated cells, the present inventors used Quercetin, a ubiquitous bioactive plant flavonoid that is able to induce p53 phosphorylation, stabilization and total p53 protein accumulation. Another widely used p53 inducer is the antimetabolite agent 5-FU. P53 transcription activity was evaluated by measuring the expression of the downstream reporter gene, GFP.

Regarding `O=c1[nH]cc(F)c(=O)[nH]1` [5-FU], the “mRNA and protein of p53 target genes” value in series [1] is listed as “up regulation”. The cell toxicity result in series [2] (even very high doses (data not shown)) is listed as “no toxicity”. For the same compound, the GFP expression result in series [3] (10 μM, compared with Quercetin) is given as “significantly higher expression levels of GFP”.

On to `O=c1c(O)c(-c2ccc(O)c(O)c2)oc2cc(O)cc(O)c12` [Quercetin], for which the “cell toxicity (cell death)” value in series [2] (transfected HCT116 cells) is reported as 60%. For the same compound, the “increase of GFP expression” value in series [3] (50 μM) was “about 10 folds”.
